Measured values published in US11642344B2, “Cholesteryl ester transfer protein (CETP) inhibitor and pharmaceutical compositions comprising said inhibitor for use in the treatment or prevention of cardiovascular diseases” (NewAmsterdam Pharma B.V., priority 2014, dated 2023).

Columns and labels:
CETP = test: Ex vivo serum CETP activity after oral administration to hamsters; parameters: species or system Syrian Golden hamsters; settings: 3 mg/kg oral, suspension in 0.5% CMC, serum 3 hours after administration
Method: Syrian Golden hamsters were used for the experiment after 1-week acclimatization. After an overnight fast, animals were orally given the compound suspension in 0.5% sodium carboxymethylcellulose in a volume of 10 mL/kg. Under deep anesthesia with ether, blood was collected from the abdominal aorta 3 hours after the administration. For preparation of serum, the collected blood was transferred to a plastic tube containing a clot activator, left still for 15 minutes at room temperature and centrifuged. Serum CETP activities were determined immediately.
Ninety-five μL serum were added to 5 μL of […] sodium phosphate buffered saline (pH 7.0) containing 1.5 mM 5,5′-dithio-bis(2-nitrobenzoic acid) in two 96-well V-bottom plates. One plate was incubated at 4° C. and the other was incubated at 37° C. After 18 hours of incubation, each sample was mixed with 100 μL of reagent for precipitation of apolipoprotein B-containing lipoproteins (phosphotungstate/MgCl2 reagent, Wako pure chemical), left still for 10 minutes at room temperature and centrifuged. Total cholesterol (TC) and free cholesterol (FC) in supernatant were measured using commercial kits (Cholesterol E-test wako, and Free Cholesterol E-test wako; Wako pure chemical). Cholesteryl ester (CE) was calculated by subtracting FC from TC. CETP activity was determined by the following formula: CETP activity=[CETP transfer]*/[CE value in 4° C. incubation sample] *CETP transfer=[CE value in 4° C. incubation sample]−[CE value in 37° C. incubation sample] (c) Results

[1] = Clinical repeated dose study: pharmacokinetics (LC/MS/MS plasma concentrations); assay type: in vivo, human
Method: The clinical study was a repeated dose study in 5 groups of Caucasian male subjects aged 18 to 55 years. Each subject received a single oral dose of Compound A/placebo on Day 1, followed by once daily doses on Days 8 to 35 (5 mg Compound A/placebo—Group 1) or Days 8 to 28 (1, 2.5, 10 and 25 mg Compound A/placebo—Groups 2 to 5). All doses were administered at the study center after a standard breakfast. Subjects in each dose group were allocated to study treatment in a ratio of 10 Compound A to 2 placebo. Blood samples for pharmacokinetic and pharmacodynamic (CETP activity, CETP concentration, HDL-C, LDL-C, total cholesterol, triglycerides) assessments were collected from prior to each dose and at intervals throughout the study until 336 hours after the last dose. Secondary pharmacodynamic endpoints (including apolipoproteins A1, A2, B, and E, HDL2-C, HDL3-C, phospholipids, HDL-free cholesterol [HDL-FC], HDL-cholesteryl ester [HDL-CE], HDL-phospholipids [HDL-PL], HDL-triglycerides [HDL-TG], and LDL particle size) were measured at intervals until the last day of dosing. Urine was collected for pharmacokinetics from pre dose and at intervals up to 72 hours after the first and last dose. Safety assessments including adverse events, blood pressure and pulse rate, ECGs, laboratory safety tests (including aldosterone) and physical examinations were conducted throughout both studies.
Plasma and urine concentrations of Compound A were determined using validated liquid chromatography with tandem mass spectrometry (LC/MS/MS) methods. The lower limit of quantification (LLQ) for both assays was 0.500 ng/mL. Plasma concentration of CETP was determined using a validated enzyme-linked immunosorbent assay (ELISA) method with a lower limit of quantification (LLQ) of 0.500 μg/mL. CETP activity was determined as the rate of [^3H]-labeled CE transfer from donor HDL to acceptor VLDL/LDL. [^3H]CE-labeled HDL was added to human plasma and incubated for 4 hours at 37° C. Non-HDL lipoproteins were precipitated and separated from HDL, and the amount of radioactivity in the supernatant was quantitated. CETP activity was determined as the difference of the radioactivity between the samples incubated at 37° C. and 4° C. HDL-C and LDL-C were measured by homogenous enzymatic colorimetric assay using a Modular analyser (Roche Diagnostics). Total cholesterol and triglycerides were measured by homogenous enzymatic assay using a Modular analyser (cholesterol oxidase peroxidase-peroxidase aminophenazone phenol [CHOP-PAP]) method and a glycerol phosphate oxidase [GPO-PAP] method, respectively. ApoA1, ApoA2, ApoB and ApoE were measured by immunoturbidimetry using reagents from Rolf Greiner Biochemica (Germany) and N-apoprotein standard serum from Siemens (Germany). LDL particle size was determined by gradient gel electrophoresis. HDL fraction was separated by a combined ultracentrifugation-precipitation method (Beta-quantification). HDL-2 and HDL-3 fractions were then separated by further ultracentrifugation. Total-cholesterol in HDL, HDL-2 and HLD-3 fractions, free cholesterol in HDL fraction, triglycerides in HDL fraction and phospholipids in plasma and HDL-fraction were measured using enzymatic methods and reagents from Diasys Diagnostics (Germany). The measurements were performed on an Olympus AU600 automatic analyzer and were calibrated using secondary standards from Roche Diagnostics (Total-cholesterol, triglycerides) and Diasys Diagnostics (free cholesterol, phospholipids), respectively. Esterified cholesterol was calculated as the difference between total-cholesterol and free cholesterol.
The sample sizes for the study were chosen based on practical considerations rather than statistical power. The numbers of subjects in each group were considered to be adequate to assess the main objectives of each study. Subjects were allocated to Compound A or placebo in each group by means of a computer-generated randomization code. […]

[2] = steady state, for a 25-fold increase in dose

## CCOC(=O)N1c2ccc(C(F)(F)F)cc2[C@@H](N(Cc2cc(C(F)(F)F)cc(C(F)(F)F)c2)c2ncc(OCCCC(=O)O)cn2)C[C@H]1CC [Compound A, {4-[(2-{[3,5-bis(trifluoromethyl)benzyl][(2R,4S)-1-(ethoxycarbonyl)-2-ethyl-6-(trifluoromethyl)-1,2,3,4-tetrahydroquinolin-4-yl]amino}pyrimidin-5-yl)oxy]butanoic acid}]
CETP
  ex vivo (% inhibition) 3 mg/kg (CMC): 79.2%
[1]; 1 mg
  accumulation with once daily dosing: approximately 6 fold
[1]; 25 mg
  accumulation with once daily dosing: 2 fold
[1]; at the claimed dose (1 to 25 mg per day)
  residual effects on cessation of dosing: does not show prolonged residual effects
[1]; clinical studies
  food effects: does not suffer from food effects
[1]; male, human, plasma, oral, following the last dose, independent of dose, read-out: mean terminal half-life
  half-life: 121 to 151 h
[1]; male, human, plasma, oral, post-dose, independent of dose, 1 to 25 mg, read-out: Tmax (median)
  Tmax: 4 to 6 h
[1]; single and multiple dosing
  CVs for Cmax, Cmin and AUC parameters: ≤ 33%
[1]; single doses from 1 to 25 mg
  increase of plasma concentrations with dose: approximately proportionally to dose
[1]; [2]
  increase in AUC0-tau,ss: 9 fold
  increase in Cmax,ss: 12 fold
  increase in Cmin,ss: 7 fold
